Results on 4 compounds are retold here after patent US20250170121A1, “ISOQUINOLINONE COMPOUND, AND PREPARATION METHOD AND USE THEREFOR” (FUDAN UNIVERSITY, priority 2022, published 2025).

The test system of assay [1] is prostate cancer cells. To be noted: background statement; cited from earlier work.
The target in assay [2] is FABP3 (Homo sapiens, UniProt P05413). Put plainly: FABP3 inhibition rate, ANS substrate competition method (illustrated by the FABP4 system). To be noted: compound 25 μM. The format is binding. The text has this: (§1) Considering that inhibition of FABP3 would cause myocardial function damage and bring potential safety issues, we tested the inhibitory activity of some compounds on FABP3. The activity test is illustrated by the example of the FABP4 activity test system as below.
Chain of FABP3 (P05413 whole entry): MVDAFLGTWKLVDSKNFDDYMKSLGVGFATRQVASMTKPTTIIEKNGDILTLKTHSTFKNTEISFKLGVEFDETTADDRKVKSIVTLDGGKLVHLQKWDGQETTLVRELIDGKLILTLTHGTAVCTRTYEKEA
(§2) Experimental principle and method: Once the free non-covalent fluorescent probe ANS binds to FABP4, the ANS fluorescence intensity will increase and its spectrum will be blue shifted. In this experiment, the inhibitory effect of the compound on FABP4 was evaluated by measuring the change in the ANS fluorescence signal value. For the FABP4 inhibitory activity test, the ANS substrate competition method was used, and we used the method of Kane and Bernlohr (E. Marr, M. Tardie, M. Carty, T. Brown Phillips, I. K. Wang, W. Soeller, X. Qiu, G. Karam, Expression, purification, crystallization and structure of human adipocyte lipid-binding protein (aP2). Acta Crystallogr., Sect. F: Struct. Biol. Cryst. Commun. 62 (2006) 1058-1060.). Human FABP4 with a His tag was expressed in the BL21 (DE3) strain and then purified using a Ni column with a His tag to generate the protein. In the detection system, the concentration of 1,8-ANS substrate was 10 μM, the final concentration of FABP4 was 10 μM, and then the compound prepared by the present invention was added at the required concentration for incubation for 3 minutes, and finally the fluorescence signal was detected at an excitation wavelength (EX) of 370 nm/emission wavelength (EM) of 470 nm. The inhibition rate (%) of the test sample on FABP4 was calculated according to the fluorescence absorption value of the system. The inhibition rate (%) was calculated according to the following equation: […]
(§3) FX represents the fluorescence value (fluorescence, F) of the system measured in the presence of compound x;
(§4) Fbackground represents the fluorescence value of the fluorescent substrate ANS;
(§5) F0% represents the fluorescence value of the system when the inhibition rate is 0%, that is, when no compound was added.

Assay [3] relates to MCP-1 secretion in THP-1 cells. Put plainly: MCP-1 secretion in LPS-stimulated THP-1 monocyte-derived macrophages (ELISA). The format is cell-based. To be noted: FIG. 2; for secretion of inflammatory factor MCP-1 in THP-1 mononuclear macrophages: 25 μM, 10 μM and 5 μM, 18 h incubation, 100 ng/ml LPS 6 h; for MCP-1 reducing activity compared with BMS309403 and RO6806051: THP-1 macrophages, LPS. From the text: In FIG. 2A to FIG. 2C, the vertical axis represents the amount (ng) of MCP-1 contained in each mg of cell protein: in FIG. 2D, the vertical axis represents the relative concentration of MCP-1 (ng/mg cellular protein % LPS). Wherein, Control represents blank control treatment, LPS represents lipopolysaccharide treatment, BMS309403 represents inhibitor positive control treatment, RO6806051 (RO) represents lead compound treatment, and Y2, Y3, Y15, Y16 and Y18 represent treatments with compounds Y2, Y3, Y15, Y16 and Y18 prepared in the present invention, respectively.
(§6) Effects of the compounds on monocyte chemoattractant factor-1 (MCP-1) and interleukin-6 (IL-6) in THP-1 monocyte-derived macrophage.
(§7) First, monocytic cell line THP-1 in logarithmic growth phase was plated on a 96-well plate at a cell density of 5*10^5/ml; then 100 nM phorbol myristate ester (PMA) was added to induce the cells for 24 hours to differentiate into macrophages; then the cells were washed once or twice with phosphate buffered saline (PBS), and different concentrations of compounds (5, 10, 25 μM) were added for incubation for 18 hours; finally, after 6 hours of stimulation with 100 ng/ml lipopolysaccharide (LPS), the supernatant was collected and diluted to a certain multiple and the contents of MCP-1 and IL-6 were detected using enzyme-linked immunosorbent assay (ELISA), and cell protein was collected and the protein concentration was measured by BCA method for calibration.
In general terms: In an ELISA, binding on a coated surface is turned into a signal by an enzyme label.

Assay [4] has as its target FABP5 (Homo sapiens, UniProt Q01469). Put plainly: FABP5 inhibition rate, ANS substrate competition method (illustrated by the FABP4 system). The format is binding. As to conditions: compound 25 μM.
For assay [5], the target named is T1, Human FABP4 (Homo sapiens, UniProt P15090).
T1 construct: His tag; made in house; host or cells: E. coli BL21 (DE3)
T1 sequence (P15090 whole entry): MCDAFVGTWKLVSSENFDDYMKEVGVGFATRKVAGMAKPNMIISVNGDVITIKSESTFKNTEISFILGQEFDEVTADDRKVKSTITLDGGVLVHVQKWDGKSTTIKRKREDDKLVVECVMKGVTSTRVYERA
Briefly: FABP4 inhibition rate, ANS substrate competition (fluorescence) method. In kind it is binding. To be noted: compound 25 μM; 10 μM 1,8-ANS, 10 μM FABP4.
Source text: as §1, §2, §3, §4, §5

For assay [6], the system named is 3T3-L1 cells. Put plainly: Lipolysis inhibition in differentiated mature 3T3-L1 adipocytes (supernatant glycerol, forskolin stimulation). In kind it is cell-based. To be noted: 80 μM compound, 24 h incubation, 20 μM forskolin 2 h; FIG. 1. The method, then:
In this example, the lipolysis inhibitory activity of the compounds prepared in the present invention on differentiated mature 3T3-L1 preadipocytes was measured.
5 In adipocytes, FABP4 plays the role of a fatty acid chaperone, and gene knockout or drug inhibition of FABP4 can be used to inhibit lipolysis and promote lipid production in adipocytes. Therefore, the lipolysis experiment can be used as a confirmation indicator of the FABP4 inhibitory activity of the compound. In this experiment, the lipolysis activity of the compounds was evaluated by measuring the effect of the compounds prepared in the present 10 invention on the glycerol content of the supernatant of mature adipocytes.
Experimental materials: 3T3-L1 preadipocytes; calf serum, fetal bovine serum, high glucose H-DMEM culture medium, 3-isobutyl-1-methylxanthine (IBMX), dexamethasone, insulin, Forskolin, glycerol determination kit, BCA protein concentration determination kit.
1. 3T3-L1 preadipocytes were inoculated on culture plates and cultured in high-glucose DMEM containing 10% calf serum in a 37° C., 5% CO2 incubator;
2. After the cells were fully grown, contact inhibition was performed for two days;
3. […]
6. The cell supernatant was collected to measure the glycerol content, the intracellular protein concentration was measured by BCA method for calibration, and finally Graphpad Prism was used to analyze the results.

Assay [7] deals with IL-6 secretion in THP-1 cells. Briefly: IL-6 secretion in LPS-stimulated THP-1 monocyte-derived macrophages (ELISA). In kind it is cell-based. To be noted: FIG. 3.
Source text: In FIG. 3, the vertical axis represents the amount (ng) of MCP-1 contained in each mg of cell protein. Wherein, Control (Con) represents blank control treatment, LPS represents lipopolysaccharide treatment, BMS309403 represents inhibitor positive control treatment, RO6806051 (RO) represents lead compound treatment, and Y2, Y3, Y15, Y16 and Y18 represent treatments with compounds Y2, Y3, Y15, Y16 and Y18 prepared in the present invention, respectively.
as §6, §7

Chain of FABP5 (Q01469 whole entry): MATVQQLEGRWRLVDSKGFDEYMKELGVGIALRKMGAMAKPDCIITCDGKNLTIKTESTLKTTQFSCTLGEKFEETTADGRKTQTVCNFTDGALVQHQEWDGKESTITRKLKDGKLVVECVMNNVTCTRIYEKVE

With `CCc1c(-c2ccccc2)c(-c2ccccc2)nn1-c1ccccc1-c1cccc(OCC(=O)O)c1` [BMS309403], in assay [1], the “effect on prostate cancer cell proliferation, metastasis and apoptosis” value was “inhibit cell proliferation and metastasis and promote cell apoptosis”.
The inhibition is the share of the control response that was lost under treatment. As to `O=C(O)c1c(-c2ccccc2)c2cc(Cl)ccc2c(=O)n1CC1CCCCC1` [Compound Y2, 6-Chloro-2-(cyclohexylmethyl)-1-oxo-4-phenyl-1,2-dihydroisoquinoline-3-carboxylic Acid], the inhibition at 25 µM in assay [2] was determined as 48%; in assay [4], 73%; in assay [5] it was 93%. Besides, in assay [3], the “secretion of inflammatory factor MCP-1 in THP-1 mononuclear macrophages” value is recorded as “could reduce the secretion of inflammatory factor MCP-1”. Besides, the “MCP-1 reducing activity compared with BMS309403 and RO6806051” value in assay [3] is “better than those of the positive control FABP4 inhibitor BMS309403 and the lead compound RO6806051”. Further, in assay [6], the “glycerol content of the supernatant under FSK (forskolin) stimulation” value is “significantly reduce the glycerol content”. The “IL-6 secretion, tendency (no concentration stated)” value in assay [7] is listed as “tendency to reduce IL-6 secretion but with no statistical difference”.
`O=C(O)c1c(-c2ccccc2)c2cc(Cl)ccc2c(=O)n1C1CCCC1` [Compound Y3, 6-Chloro-2-cyclopentyl-1-oxo-4-phenyl-1,2-dihydroisoquinoline-3-carboxylic Acid]: the results for the inhibition at 25 µM in assay [2], in assay [4] and in assay [5] were 36%, 68% and 93%, respectively. In addition, the “secretion of inflammatory factor MCP-1 in THP-1 mononuclear macrophages” value in assay [3] is given as “could reduce the secretion of inflammatory factor MCP-1”. Further, the “MCP-1 reducing activity compared with BMS309403 and RO6806051” value in assay [3] was “better than those of the positive control FABP4 inhibitor BMS309403 and the lead compound RO6806051”. Moreover, the “glycerol content of the supernatant under FSK (forskolin) stimulation” value in assay [6] is given as “significantly reduce the glycerol content”. In assay [7], the “IL-6 secretion, tendency (no concentration stated)” value is given as “tendency to reduce IL-6 secretion but with no statistical difference”.
`O=C(O)c1c(-c2ccc(F)c(Cl)c2)c2cc(Cl)ccc2c(=O)n1C1CCCC1` [Compound Y18, 6-Chloro-4-(3-chloro-4-fluorophenyl)-2-cyclopentyl-1-oxo-1,2-dihydroisoquinoline-3-carboxylic Acid]: the inhibition at 25 µM in assay [2] is 16%; in assay [4] it was 46%; in assay [5], 91%. The “secretion of inflammatory factor MCP-1 in THP-1 mononuclear macrophages” value in assay [3] is reported as “could reduce the secretion of inflammatory factor MCP-1”. For the same compound, the “secretion of inflammatory factor IL-6 in THP-1 mononuclear macrophages” value in assay [7] (25 μM) is “could reduce the secretion of inflammatory factor IL-6”. Further, the “IL-6 secretion, tendency (no concentration stated)” value in assay [7] was “tendency to reduce IL-6 secretion but with no statistical difference”.
